In brackets after ≈: the same amount, converted by molar mass. Activity calls are given as the source filed them. The rule behind the calls is not given here.
What was measured:
[1] = tested on: Staphylococcus aureus; test: Antibacterial activity against Staphylococcus aureus SG 511 after 18 hrs by broth microdilution method; type: functional; conditions: SG 511, 18 h
[2] = tested on: Pseudomonas aeruginosa; test: Antibacterial activity against Pseudomonas aeruginosa 01 after 18 hrs by broth microdilution method; type: functional; conditions: Pseudomonas aeruginosa, 01, 18 h
[3] = tested on: Pseudomonas aeruginosa; test: Antibacterial activity against Pseudomonas aeruginosa KW799/wt after 18 hrs by broth microdilution method; type: functional
[4] = tested on: Pseudomonas aeruginosa; test: Antibacterial activity against Pseudomonas aeruginosa ARC 3502 after 18 hrs by broth microdilution method; type: functional; conditions: ARC 3502, 18 h
[5] = tested on: Pseudomonas aeruginosa; test: Antibacterial activity against Pseudomonas aeruginosa ARC 3506 after 18 hrs by broth microdilution method; type: functional; conditions: ARC 3506, 18 h
[6] = tested on: Pseudomonas aeruginosa; test: Antibacterial activity against clinical isolates of Pseudomonas aeruginosa ISR-14-003 after 18 hrs by broth microdilution method; type: functional
[7] = tested on: Pseudomonas aeruginosa; test: Antibacterial activity against clinical isolates of Pseudomonas aeruginosa ISR-14-004 after 18 hrs by broth microdilution method; type: functional
[8] = tested on: Escherichia coli; test: Antibacterial activity against Escherichia coli DC0 after 18 hrs by broth microdilution method; type: functional; conditions: DC0, 18 h
[9] = tested on: Proteus mirabilis; test: Antibacterial activity against Proteus mirabilis X235 after 18 hrs by broth microdilution method; type: functional; conditions: X235, 18 h
[10] = tested on: Salmonella typhimurium; test: Antibacterial activity against Salmonella typhimurium ATCC 13311 after 18 hrs by broth microdilution method; type: functional, Salmonella enterica subsp. enterica serovar Typhimurium; conditions: Salmonella enterica, ATCC 13311, 18 h
[11] = tested on: Klebsiella aerogenes; test: Antibacterial activity against Enterobacter aerogenes X816 after 18 hrs by broth microdilution method; type: functional; conditions: X816, 18 h
[12] = tested on: Citrobacter freundii; test: Antibacterial activity against Citrobacter freundii ATCC 29063 after 18 hrs by broth microdilution method; type: functional; conditions: ATCC 29063, 18 h
[13] = tested on: Acinetobacter baumannii; test: Antibacterial activity against Acinetobacter baumannii ATCC 17961 after 18 hrs by broth microdilution method; type: functional; conditions: ATCC 17961, 18 h
[14] = tested on: Acinetobacter baumannii; test: Antibacterial activity against Acinetobacter baumannii ATCC BAA 1797 after 18 hrs by broth microdilution method; type: functional; conditions: ATCC BAA 1797, 18 h
[15] = tested on: Acinetobacter baumannii; test: Antibacterial activity against clinical isolates of Acinetobacter baumannii ISR14-005 after 18 hrs by broth microdilution method; type: functional
[16] = tested on: Acinetobacter baumannii; test: Antibacterial activity against carbapenemase producing Acinetobacter baumannii ATCC 17978-PNT-165 after 18 hrs by broth microdilution method; type: functional; conditions: ATCC 17978-PNT-165, 18 h
[17] = tested on: Acinetobacter baumannii; test: Antibacterial activity against Acinetobacter baumannii ATCC BAA 1793 after 18 hrs by broth microdilution method; type: functional
[18] = tested on: Acinetobacter baumannii; test: Antibacterial activity against clinical isolates of Acinetobacter baumannii ARC 5079 after 18 hrs by broth microdilution method; type: functional
[19] = tested on: Acinetobacter baumannii; test: Antibacterial activity against cephalosporinase producing Acinetobacter baumannii ATCC 17978-PNT-320 after 18 hrs by broth microdilution method; type: functional
[20] = tested on: Acinetobacter baumannii; test: Antibacterial activity against Acinetobacter baumannii ATCC BAA 1800 after 18 hrs by broth microdilution method; type: functional; conditions: ATCC BAA 1800, 18 h
[21] = tested on: Burkholderia dolosa; test: Antibacterial activity against Burkholderia dolosa AU0018 after 18 hrs by broth microdilution method; type: functional; conditions: AU0018, 18 h
[22] = tested on: Pseudomonas aeruginosa; test: Antibacterial activity against clinical isolates of Pseudomonas aeruginosa ISR-14-003 after 18 hrs in presence of tazobactam by broth microdilution method; type: functional; conditions: ISR-14-003, 18 h
[23] = tested on: Pseudomonas aeruginosa; test: Antibacterial activity against clinical isolates of Pseudomonas aeruginosa ISR-14-004 after 18 hrs in presence of tazobactam by broth microdilution method; type: functional; conditions: ISR-14-004, 18 h
[24] = tested on: Acinetobacter baumannii; test: Antibacterial activity against clinical isolates of Acinetobacter baumannii ISR14-005 after 18 hrs in presence of tazobactam by broth microdilution method; type: functional; conditions: ISR14-005, 18 h
[25] = tested on: Pseudomonas aeruginosa; test: Antibacterial activity against Pseudomonas aeruginosa ARC 3506 after 18 hrs in presence of tazobactam by broth microdilution method; type: functional; conditions: ARC 3506, 18 h
[26] = tested on: Acinetobacter baumannii; test: Antibacterial activity against clinical isolates of Acinetobacter baumannii ARC 5079 in presence of tazobactam after 18 hrs by broth microdilution method; type: functional; conditions: ARC 5079, 18 h
[27] = tested on: Pseudomonas aeruginosa; test: Antibacterial activity against Pseudomonas aeruginosa ARC 3502 after 18 hrs in presence of tazobactam by broth microdilution method; type: functional; conditions: ARC 3502, 18 h
[28] = tested on: Acinetobacter baumannii; test: Antibacterial activity against Acinetobacter baumannii ATCC BAA 1793 at 10 ug/ml after 18 hrs by broth microdilution method; type: functional
[29] = tested on: Acinetobacter baumannii; test: Antibacterial activity against Acinetobacter baumannii ATCC BAA 1800 at 10 ug/ml after 18 hrs by broth microdilution method; type: functional

MIC [1] [µM]	MIC [2] [µM]	MIC [3] [µM]	MIC [4]	MIC [5]	MIC ([6]; ISR-14-003, 18 h)	MIC ([7]; ISR-14-004, 18 h)	MIC [8] [µM]	MIC [9] [µM]	MIC [10] [µM]	MIC [11] [µM]	MIC [12] [µM]	MIC [13] [µM]	MIC [14] [µM]	MIC ([15]; ISR14-005, 18 h)	MIC [16] [µM]	MIC ([17]; ATCC BAA 1793, 18 h) [µM]	MIC [20] [µM]	MIC ([18]; ARC 5079, 18 h)	MIC [21] [µM]	Compound	further results
> 50	> 50	> 50	> 50 µM	> 50 µM	> 50 µM	> 50 µM	25 (≈ 11 µg/mL)	12.5 (≈ 5.48 µg/mL)	12.5 (≈ 5.48 µg/mL)	0.2 (≈ 0.0877 µg/mL)	12.5 (≈ 5.48 µg/mL)	50 (≈ 21.9 µg/mL)	> 50	> 50 µM	50 (≈ 21.9 µg/mL)					CO/N=C(\C(=O)N[C@@H]1C(=O)N(S(=O)(=O)O)[C@H]1CSCCN)c1cnc(N)s1	
> 50	> 50	> 50	≥ 50 µM	> 50 µM	> 50 µM	> 50 µM	6 (≈ 3.06 µg/mL)	3 (≈ 1.53 µg/mL)	4.5 (≈ 2.3 µg/mL)	9.4 (≈ 4.8 µg/mL)	3 (≈ 1.53 µg/mL)	> 50	50 (≈ 25.5 µg/mL)	> 50 µM	50 (≈ 25.5 µg/mL)	≥ 50	≥ 50	> 50 µM	> 50	CC(C)(O/N=C(\C(=O)N[C@@H]1C(=O)N(S(=O)(=O)O)[C@H]1CSCCN)c1cnc(N)s1)C(=O)O	MIC ([19]; ATCC 17978-PNT-320, 18 h): > 50 µM; MIC [25]: > 50 µM; MIC [26]: > 50 µM

More lines, now with the values behind:

Compound	MIC [1] [µM]	MIC [2] [µM]	MIC [3] [µM]	MIC [4]	MIC [5]	MIC ([6]; ISR-14-003, 18 h)	MIC ([7]; ISR-14-004, 18 h)	MIC [8] [µM]	MIC [9] [µM]	MIC [10] [µM]	MIC [11] [µM]	MIC [12] [µM]	MIC [13] [µM]	MIC [14] [µM]	MIC ([15]; ISR14-005, 18 h)	MIC [16] [µM]	MIC ([17]; ATCC BAA 1793, 18 h) [µM]	MIC [20] [µM]	MIC ([18]; ARC 5079, 18 h)	MIC [21] [µM]	further results
POLYMYXIN B																					MIC [6]: 0.1 µM; MIC [7]: 0.05 µM; MIC [17]: < 0.025 µM; MIC [15]: < 0.025 µM; MIC [18]: < 0.1 µM; MIC [19]: < 0.025 µM
CC(C)(O/N=C(\C(=O)N[C@@H]1C(=O)N(S(=O)(=O)O)[C@H]1CSCCNC(=O)CN(CCCCNC(=O)c1cccc(O)c1O)C(=O)c1cccc(O)c1O)c1cnc(N)s1)C(=O)O	> 50	0.4 (≈ 0.364 µg/mL)	0.4 (≈ 0.364 µg/mL)	> 50 µM	> 50 µM	1.6 µM	6 µM	< 0.025	< 0.025	0.025 (≈ 0.0228 µg/mL)	0.075 (≈ 0.0683 µg/mL)	0.05 (≈ 0.0455 µg/mL)	0.2 (≈ 0.182 µg/mL)	0.4 (≈ 0.364 µg/mL)	> 50 µM	0.4 (≈ 0.364 µg/mL)	0.1 to 0.4 (≈ 0.0911 to 0.364 µg/mL)	0.1 to 0.4 (≈ 0.0911 to 0.364 µg/mL)	1.6 to 25 µM	> 50	MIC ([19]; ATCC 17978-PNT-320, 18 h): 0.4 µM; MIC [22]: 1.6 µM; MIC [23]: 3 µM; MIC [24]: 25 µM; MIC [25]: 1.6 to 25 µM; MIC [26]: 1.6 to 50 µM; MIC [27]: 1.6 µM
C[C@H]1[C@H](NC(=O)/C(=N\OC(C)(C)C(=O)O)c2csc(N)n2)C(=O)N1S(=O)(=O)O [AZTREONAM]	> 50		1.6 (≈ 0.697 µg/mL)		12.5 to 50 µM			0.1 (≈ 0.0435 µg/mL)	0.05 (≈ 0.0218 µg/mL)	0.1 (≈ 0.0435 µg/mL)	0.2 (≈ 0.0871 µg/mL)	0.1 (≈ 0.0435 µg/mL)				12.5 (≈ 5.44 µg/mL)	12.5 to 25 (≈ 5.44 to 10.9 µg/mL)	12.5 to 25 (≈ 5.44 to 10.9 µg/mL)		> 50	
C[C@]1(Cn2ccnn2)[C@H](C(=O)O)N2C(=O)C[C@H]2S1(=O)=O [TAZOBACTAM]				> 10 mg/L	> 10 mg/L	> 20 mg/L	> 20 mg/L								> 20 mg/L				> 10 mg/L	> 50	MIC ([19]; ATCC 17978-PNT-320, 18 h): < 10 mg/L; Activity [28]: inactive; Activity [29]: inactive
COC(=O)CSC[C@H]1[C@H](NC(=O)Cc2ccccc2)C(=O)N1S(=O)(=O)O	> 50	> 50	> 50	> 50 µM	> 50 µM	> 50 µM	> 50 µM	> 50	> 50	> 50	> 50	> 50	> 50	> 50	> 50 µM	> 50	> 50	> 50	> 50 µM	> 50	MIC ([19]; ATCC 17978-PNT-320, 18 h): > 50 µM

From ChEMBL document CHEMBL4028874, “Methodology for Monobactam Diversification: Syntheses and Studies of 4-Thiomethyl Substituted β-Lactams with Activity against Gram-Negative Bacteria, Including Carbapenemase Producing Acinetobacter baumannii” (2017)
